Assay results reported in ChEMBL document CHEMBL1156817, “Fructose-1,6-bisphosphatase Inhibitors. 2. Design, synthesis, and structure-activity relationship of a series of phosphonic acid containing benzimidazoles that function as 5'-adenosinemonophosphate (AMP) mimics” (J Med Chem, 2010).
The source made the active and inactive calls. The calls are words filed in the database; no cut-off is given here.

Columns and labels:
Hepatocyte [1] = experiment: Inhibition of glucose production in rat primary hepatocytes at 10 uM; type: functional, cell-based
[2] = Oral bioavailability in 18 hrs fasted normal Sprague-Dawley rat up to 100 mg/kg by urinary excretion assay; type: ADME, organism-based; details: urine
Hepatocyte [3] = experiment: Inhibition of glucose production in rat primary hepatocytes at 100 uM; type: functional, cell-based
Rattus norvegicus [4] = experiment: Reduction of blood glucose level in 18 hrs fasted normal Sprague-Dawley rat at 10 mg/kg, iv after 1 hr interval; type: functional; set-up: scale not given: the % may be the effect or the level left
[5] = target: T1, ATP-dependent 6-phosphofructokinase, muscle type (Homo sapiens, UniProt P08237); experiment: Activation of phosphofructokinase AMP binding site
T1 sequence (P08237 whole entry): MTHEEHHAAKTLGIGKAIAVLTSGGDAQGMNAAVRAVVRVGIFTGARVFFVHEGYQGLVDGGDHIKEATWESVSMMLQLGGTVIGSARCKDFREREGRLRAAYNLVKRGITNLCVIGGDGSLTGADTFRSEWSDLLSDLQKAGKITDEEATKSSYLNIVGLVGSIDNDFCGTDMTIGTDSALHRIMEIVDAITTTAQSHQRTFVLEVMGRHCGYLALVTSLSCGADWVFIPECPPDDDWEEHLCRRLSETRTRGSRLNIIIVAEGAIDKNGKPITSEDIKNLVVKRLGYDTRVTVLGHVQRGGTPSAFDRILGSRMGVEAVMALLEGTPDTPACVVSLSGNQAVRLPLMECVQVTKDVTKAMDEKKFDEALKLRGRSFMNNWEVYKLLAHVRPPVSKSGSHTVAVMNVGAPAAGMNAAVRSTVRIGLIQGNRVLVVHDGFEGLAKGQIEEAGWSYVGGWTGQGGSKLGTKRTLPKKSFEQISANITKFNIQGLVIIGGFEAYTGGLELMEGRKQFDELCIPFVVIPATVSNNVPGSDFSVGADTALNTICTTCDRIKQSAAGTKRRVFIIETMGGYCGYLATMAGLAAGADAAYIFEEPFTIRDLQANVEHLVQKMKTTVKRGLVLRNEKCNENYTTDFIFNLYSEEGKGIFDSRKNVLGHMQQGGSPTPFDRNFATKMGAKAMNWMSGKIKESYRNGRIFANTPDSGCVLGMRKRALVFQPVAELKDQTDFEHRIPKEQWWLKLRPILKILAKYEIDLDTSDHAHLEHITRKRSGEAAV

Rattus norvegicus [6] = experiment: Reduction of blood glucose level in 5 hrs fasted ZDF rat at 10 mg/kg, iv administered every 1 hr for 6 hrs; type: functional, organism-based; set-up: dose 10 mg/kg
Adenosine kinase = Adenosine kinase (Homo sapiens, UniProt P55263); experiment: Inhibition of adenosine kinase AMP binding site
[7] = Inhibition of adenylate kinase AMP binding site
[8] = Activation of glycogen phosphorylase AMP binding site

Chain of Adenosine kinase (P55263 whole entry): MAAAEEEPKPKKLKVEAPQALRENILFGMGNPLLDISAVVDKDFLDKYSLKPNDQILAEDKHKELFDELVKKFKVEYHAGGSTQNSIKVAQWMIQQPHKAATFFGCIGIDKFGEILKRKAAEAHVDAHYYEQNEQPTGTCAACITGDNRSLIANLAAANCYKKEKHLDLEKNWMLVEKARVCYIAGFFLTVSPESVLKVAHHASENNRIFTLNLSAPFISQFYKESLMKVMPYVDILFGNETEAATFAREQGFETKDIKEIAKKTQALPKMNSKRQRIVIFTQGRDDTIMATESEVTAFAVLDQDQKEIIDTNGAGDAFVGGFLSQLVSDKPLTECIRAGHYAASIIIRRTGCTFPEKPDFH

bioavailability [2]: 1% | EC50 [5]: > 100 µM | IC50 (Adenosine kinase): > 100 µM | IC50 [7]: > 100 µM | EC50 [8]: > 100 µM
SMILES: CCc1cc(F)c(N)c2nc(-c3ccc(P(=O)(O)O)o3)n(CC(C)C)c12
Activity (Hepatocyte [1]): Active | Activity (Hepatocyte [3]): Active | Activity (Rattus norvegicus [4]): 64% | Activity (Rattus norvegicus [6]): Active
